Reference: publication PMC4742142, “Identification of novel, in vivo active Chk1 inhibitors utilizing structure guided drug design” (Oncotarget, 2015)
“Also recorded” adds a separate entry of the source.

Legend:
Chk2 = Chk2 (Homo sapiens, UniProt O96017); assay: Etoposide induced Chk2 autophosphorylation (pS516) in HT29 cells, immunoblotting; assay type: cell-based; set-up: endogenous in cells; host or cells: HT29; conditions: 1 hour compound then 25 μM etoposide 5 hours
Protocol: (§1) Figure 3 Effect of V158411 on etoposide, gemcitabine and camptothecin induced DNA damage checkpoint and cell cycle proteins A. HT29 cells were exposed to increasing concentrations of V158411 for 1 hour followed by 25 μM etoposide for a further 5 hours. Auto-phosphorylation of Chk1 and Chk2 was determined by immunoblotting. B. HT29 cells were treated with gemcitabine (25 nM) or camptothecin (50 nM) for 16 hours followed by increasing doses of V158411 for a further 24 hours. C. HT29 cells were treated with 500 nM V158411 for 1 hour, media removed and replaced with drug free. Cells were harvested at the indicated time points post the removal of V158411. D. HT29 cells were treated with 0 or 100 nM camptothecin for 16 hours followed by V158411 for 2 - 24 hours. After the indicated time, media was removed and replaced with drug free media. All cells were harvested 24 hours after the initial addition of V158411. Protein expression was characterized by immunoblotting as described in materials and methods.
(§2) Anti-pHistone H3 (S10) was obtained from Millipore; pCdc2 (Y15), pCdc25C (S216), Chk1, pChk1 (S317), pChk2 (S516), Cyclin B1, pH2AX (S139), GAPDH and Actin from Cell Signaling Technologies and pChk1 (S296) from Abcam. […] Protein concentration was determined using BCA kit (Pierce). […]

PC3 = assay: Single agent cytotoxicity assay (SRB, 72 hours); assay type: cell-based; conditions: Homo sapiens, PC-3, PC3, prostate
Protocol: (§3) All cells were obtained from the American Type Culture Collection and maintained as low passage stocks. Cells were routinely cultured in DMEM or RPMI1640 containing 10% FCS and 1% penicillin / streptomycin (Invitrogen). The cytotoxicity of V158411 was determined following exposure of cells in 96 well plates using a 10-point titration for 72 hours. Cell proliferation was determined using sulphorhodamine B staining following protein precipitation with 10% TCA.

HT29 = assay: Single agent cytotoxicity assay (SRB, 72 hours); assay type: cell-based; conditions: Homo sapiens, HT-29, HT29, colon
Protocol: as §3

SW620 = assay: Single agent cytotoxicity assay (SRB, 72 hours); assay type: cell-based; conditions: Homo sapiens, SW-620, SW620, colon
Protocol: as §3

Chk1 [1] = molecular target: T1, Chk1 (Homo sapiens, UniProt O14757); assay: Western blotting of pChk1 (S296) in HT29 cells (gemcitabine or camptothecin; washout); assay type: cell-based; conditions: 500 nM for 1 hour then drug free media
T1 sequence (O14757 1-476): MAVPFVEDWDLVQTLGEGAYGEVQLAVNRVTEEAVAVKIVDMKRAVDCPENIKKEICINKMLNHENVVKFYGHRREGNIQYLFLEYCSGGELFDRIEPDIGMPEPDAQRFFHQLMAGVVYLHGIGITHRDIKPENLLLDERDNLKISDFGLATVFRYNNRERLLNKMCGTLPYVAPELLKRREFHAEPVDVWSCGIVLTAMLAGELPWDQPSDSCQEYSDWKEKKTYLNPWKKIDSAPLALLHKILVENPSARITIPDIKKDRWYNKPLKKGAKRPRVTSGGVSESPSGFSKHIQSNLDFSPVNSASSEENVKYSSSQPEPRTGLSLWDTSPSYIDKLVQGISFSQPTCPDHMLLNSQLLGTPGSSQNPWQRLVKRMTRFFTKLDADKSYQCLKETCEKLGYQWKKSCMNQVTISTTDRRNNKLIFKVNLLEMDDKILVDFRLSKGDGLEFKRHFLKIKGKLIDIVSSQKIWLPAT
Protocol: as §1, §2

[2] = tested on: panel of human cancer cell lines; assay: Single agent cytotoxicity, whole panel; assay type: cell-based; conditions: range over the cell lines, read-out: GI50s across the panel
Protocol: as §3

pH2AX (S139) = assay: pH2AX ELISA in HT29 cells with gemcitabine; assay type: cell-based; conditions: Homo sapiens, HT-29, 50 nM gemcitabine, 24 hours, read-out: Gem pH2AX (S139) EC50
Protocol: 1 × 10^4 HT29 cells were seeded per well of a 96 well plate and treated with a combination of 50 nM gemcitabine plus increasing concentrations of V158411 for 24 hours. Following fixation with methanol, pH2AX was detected with a mouse monoclonal antibody (JBW301, Millipore) and a europium-labeled anti-mouse secondary antibody.

Chk1 [3] = molecular target: T1, Chk1; assay: Wide panel binding assay (386 kinases); conditions: Chk1, 50 nM
Protocol: Selectivity against the cell cycle kinase CDK1 is considered critical for the pharmacological activity of Chk1 inhibitors as inhibiting it would prevent the G2 checkpoint abrogation and entry into mitosis; critical for the potentiation of cytotoxic DNA damage. Against a panel of 386 kinases in a wide panel binding assay, V158411 inhibited the activity of one kinase (Chk1) in the range 99-100%, three kinases 90-99% and 19 kinases 65-90% at 50 nM (Supplementary Table 1).

SW620 xenograft = SW620 xenograft antitumor efficacy
From the text: Xenograft studies were undertaken by Charles River Laboratories Discovery Services, North Carolina. On the day of tumor cell implant, Colo205 cells were harvested and resuspended in 50% Matrigel matrix (BD Biosciences) in PBS at a concentration of 5 × 10^6 cells/mL. Each test mouse received 1 × 10^6 Colo205 cells implanted subcutaneously (SC) in the flank of female athymic nude mice (HRLN or NCr nu/nu), and tumor growth was monitored as the average size approached 100-150 mm^3. The SW620 tumor line was maintained by serial SC transplantation in female athymic nude mice (HRLN nu/nu). Tumor fragments, approximately 1 mm^3 each, were implanted SC into the right flank of each animal and allowed to grow towards a target size of 100-150 mm^3. On day 1 of the study, tumors were randomized into treatment groups before compound administration.
V158411 was formulated in D5W and administered via IV injection into the tail vein. Cyclic treatment regimens were followed and treatment ranged from 2-3 cycles.
Tumor size was measured with electronic calipers and tumor volume calculated according to the formula ((width × width) × length) /2.
The study endpoint was defined as a tumor volume of 750 mm^3 for Colo205 or 1500 mm^3 for SW620, or day 60, whichever came first. Each animal was euthanized when its' tumor reached this endpoint. The time to endpoint (TTE) for each mouse was calculated from the equation TTE = (log10(endpoint volume)-b)/m where b is the intercept and m the slope of the line obtained by linear regression of a log-transformed tumor growth data set.

[4] = SW620, 100 mg/kg irinotecan followed by 30 mg/kg V158411
[5] = SW620, 100 mg/kg irinotecan followed by 60 mg/kg V158411

Sequence of Chk2 (O96017 whole entry): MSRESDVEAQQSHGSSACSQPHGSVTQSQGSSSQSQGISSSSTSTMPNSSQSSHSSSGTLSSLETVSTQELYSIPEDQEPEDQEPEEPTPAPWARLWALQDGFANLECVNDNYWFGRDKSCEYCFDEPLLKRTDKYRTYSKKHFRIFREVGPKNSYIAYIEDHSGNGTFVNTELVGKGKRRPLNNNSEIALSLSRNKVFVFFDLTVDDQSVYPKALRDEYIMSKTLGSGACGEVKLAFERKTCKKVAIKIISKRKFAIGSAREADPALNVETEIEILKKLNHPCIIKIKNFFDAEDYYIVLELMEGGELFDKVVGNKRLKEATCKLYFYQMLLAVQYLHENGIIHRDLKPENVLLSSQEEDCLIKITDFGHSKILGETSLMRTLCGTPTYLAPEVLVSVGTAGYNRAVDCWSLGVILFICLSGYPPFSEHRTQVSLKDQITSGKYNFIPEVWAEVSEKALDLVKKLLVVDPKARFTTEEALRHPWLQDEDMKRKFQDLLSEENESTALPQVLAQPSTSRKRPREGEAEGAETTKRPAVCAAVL

**Q.** Which IC50 (Chk2) does the source give for `CN(C)CC(C)(C)COc1ccc2[nH]c(-c3cc(NC(=O)c4cnn(Cc5ccccc5)c4)c[nH]c3=O)cc2c1` [V158411] here?
**A.** The IC50 was 904 nM.

**Q.** And the GI50 (PC3)?
**A.** The GI50 was 9500 ± 1000 nM.

**Q.** And the GI50 (HT29)?
**A.** Its GI50 is 650 ± 250 nM.

**Q.** And the GI50 (SW620)?
**A.** The GI50 was 500 ± 33 nM.

**Q.** And the “duration of Chk1 inhibition (pChk1 S296) after removal of compound from the culture media” value (Chk1 [1])?
**A.** The value was “at least 24 hours”.

**Q.** What about the IC50 [2] of the same compound?
**A.** Its IC50 is 500 to 9500 nM.

**Q.** What about the EC50 (pH2AX (S139)) of the same compound?
**A.** The EC50 was 51 nM.

**Q.** What about the “Percent inhibition at 50 nM” value (Chk1 [3]; 0.05 µM) of the same compound?
**A.** Its value is 99-100%.

**Q.** And the inhibition at 0.05 µM (Chk1 [3]; read-out: Percent inhibition at 50 nM)?
**A.** Its inhibition at 0.05 µM is 100%.

**Q.** And the “%TGD” value (SW620 xenograft; [4])?
**A.** The value was 117%.

**Q.** What about the T-C (SW620 xenograft; [4]) of the same compound?
**A.** The T-C was 15.5.

**Q.** And the “Median TTE” value (SW620 xenograft; SW620, 100 mg/kg irinotecan followed by 30 mg/kg V158411 2 hours later)?
**A.** The value was 28.8 days.

**Q.** What about the “%TGD” value (SW620 xenograft; [5]) of the same compound?
**A.** Its value is 154%.

**Q.** And the T-C (SW620 xenograft; [5])?
**A.** Its T-C is 21.3.

**Q.** What about the “Median TTE” value (SW620 xenograft; SW620, 100 mg/kg irinotecan followed by 60 mg/kg V158411 2 hours later) of the same compound?
**A.** The value was 35.1 days.

**Q.** And the “single agent anti-tumor activity” value (SW620 xenograft; SW620, V158411 monotherapy)?
**A.** Its value is “did not inhibit tumor growth; also recorded: no single agent activity”.

**Q.** And the “mean body weight nadir” value (SW620 xenograft; SW620, irinotecan plus 60 mg/kg V158411, day 5)?
**A.** The value was −13.3%.
